Assay results reported in PubChem BioAssay (NCI).
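Compound exposure: 48 hours, 5 concentrations, 96-well plates. TGI is the concentration that stops growth completely.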

Assays:
Test in all cases: NCI-60 cell line screen, 48 h
HCT-116 colon = system: HCT-116 colon
SK-MEL-5 melanoma = system: SK-MEL-5 melanoma
K-562 leukemia = system: K-562 leukemia
SK-OV-3 ovarian = system: SK-OV-3 ovarian
A549 NSCLC = system: A549 NSCLC
SNB-75 CNS = system: SNB-75 CNS
TK-10 renal = system: TK-10 renal
ACHN renal = system: ACHN renal
CCRF-CEM leukemia = system: CCRF-CEM leukemia
MOLT-4 leukemia = system: MOLT-4 leukemia

Compound	TGI (HCT-116 colon) [µM]	TGI (SK-MEL-5 melanoma) [µM]	TGI (K-562 leukemia) [µM]	TGI (SK-OV-3 ovarian) [µM]	TGI (A549 NSCLC) [µM]	TGI (SNB-75 CNS) [µM]	TGI (TK-10 renal) [µM]	TGI (ACHN renal) [µM]	TGI (CCRF-CEM leukemia) [µM]	TGI (MOLT-4 leukemia) [µM]
COC(=O)/C=C/c1ccccc1N=[S@](C)(=O)c1ccc(C)cc1	71.8	38.3	> 100	> 100	> 100	36.1	71.9	> 100	44.2	> 100
CC(=O)NNc1nc(C)c(C(/C=C/c2ccc3c(c2)OCO3)=N/Nc2ccccc2)s1	> 100	> 100	> 100	> 100	> 100	> 100	> 100	> 100	> 100	> 100
COC1C(O)CC(OC2C(C)OC(Oc3cc(O)c4c(O)c5c(cc4c3)C[C@@H]([C@H](OC)C(=O)[C@@H](O)[C@@H](C)O)[C@H](OC3CC(OC4CC(OC6CC(C)(O)C(O)C(C)O6)C(O)C(C)O4)C(O)C(C)O3)C5=O)CC2OC(C)=O)OC1C (stereo not given in full)	> 100	> 100	> 100	> 100	> 100	> 100	> 100	> 100	> 100	> 100
CC(=O)OC[C@H]1O[C@@H](O[C@H]2[C@H](OC(C)=O)C=CO[C@@H]2COC(C)=O)C(OC(C)=O)[C@H]2OC(C)(C)O[C@H]21 (stereo not given in full)	> 100	> 100	> 100	> 100	> 100	87.3	> 100	> 100	> 100	> 100
O=C(Nc1sccc1S(=O)(=O)c1ccccc1)c1cccnc1	> 100	> 26.3	> 100	> 89.1	> 100	> 91	> 100	> 100	> 24.5	> 100
CC1=NOC2(C1)/C(=N/O)CCC/C2=N\O (stereo not given)	> 100	> 100	> 100	> 100	> 100	> 100	> 100	> 100	> 100	> 100
COc1ccc2c(c1)O[C@@H]1C(O)Oc3cc(OC)c(OC)cc3[C@]1(O)C2=O (stereo not given in full)	> 100	72.4	> 100	> 100	> 100	> 100	> 100	> 100	> 100	> 100
O=C(c1ccc(Cl)cc1)c1ccc(OCC(=O)N2CCN(c3ccccc3)CC2)cc1	> 100	> 100	> 100	> 100	> 100	> 100	> 100	> 100	> 100	> 100
CCOC/N=C(/N)NC#N	> 100	> 100	> 100	> 100	> 100	> 100	> 100	> 100	> 100	> 100
COc1cc(OC)c2c(O)cc(CC(C)O)cc2c1 (stereo not given)	> 100	> 100	> 100	> 100	> 100	> 100	> 100	> 100	> 100	> 100
Cc1ccc([N+](=O)[O-])cc1S(=O)(=O)Nc1ccc(C2=NN(c3ccc([N+](=O)[O-])cc3[N+](=O)[O-])C(c3ccccc3)C2)cc1 (stereo not given)	27.4	25.1	> 100	65.8	96.6	52.4	61.8	40.3	> 100	70.8
CC(=O)Oc1ccc(/C=C/C(=O)O[C@@H](C)[C@H](C)OC(=O)/C=C/c2ccc(OC(C)=O)c(OC(C)=O)c2)cc1OC(C)=O	> 100	29.2	> 100	77.2	> 100	> 100	> 100	> 100	42.3	> 100
COC(=O)C12Oc3ccc(-c4ccc5c(c4O)C(=O)C4=CCC(C)C(O)C4(C(=O)OC)O5)c(O)c3C(=O)C1=CCC(C)C2O (stereo not given)	2.15	3.13	> 30.6	6.71	6.59	20.5	5.24	3.21	9.26	> 23
C=CC[C@H]1[C@@H](O[Si](C)(C)C(C)(C)C)[C@H](n2ccc(=O)[nH]c2=O)O[C@@H]1CO[Si](C)(C)C(C)(C)C	3.11	3.18	6.1	2.68	5.8	3.97	7.02	5.41	16	8.66
Cc1c(-c2c(C)c3ccccc3n2S(=O)(=O)c2ccccc2)n(S(=O)(=O)c2ccccc2)c2ccccc12	> 100	> 94.1	> 100	> 100	> 100	> 31.6	> 100	> 100	> 100	> 100
CC(=O)NCCCCNCCCNC(C)=O	> 100	> 100	> 100	> 100	> 100	> 100	> 100	> 100	> 100	> 100
CCCC/C=C1\CCC(CN2CCCCC2)C1=O (stereo not given)	36.7	42.6	22.8	> 56.2	52.9	> 100	28.1	44.3	16.2	18.4
COc1ccc(CCn2cnc3ccccc32)cc1	> 100	> 100	> 100	> 100	> 100	> 100	> 100	> 100	> 100	> 100
COc1cccc(N2C(=O)C3c4[nH]c5ccccc5c4C4c5ccccc5CCC4C3C2=O)c1 (stereo not given)	> 10	> 10	> 10	> 7.28	> 10	6.3	> 10	> 10	> 10	> 10
CCOC(=O)/C(=C\NCC(O)c1ccccc1)c1nc2ccccc2[nH]1 (stereo not given)	86.3	22.9	59.6	> 100	> 100	58.2	> 100	28.8	33.3	34.3
Cc1cnoc1NC1=CC(=O)C(=O)c2ccccc21	70.8	12	10.9	> 100	63.8	> 100	> 100	> 100	44.6	38.8
